Values of other authors in article PMC3230568 (International Journal of Nanomedicine, 2011).

Columns and labels:
[1] = azurin
NTD of p53 = settings: biological as well as computational studies
cancer cells [2] = settings: azurin, relative to normal cells
p53 = settings: azurin
cancer cells [3] = settings: azurin
full-length p53 = full-length p53 (Homo sapiens, UniProt P04637); settings: single-molecule AFS
full-length p53, sequence (P04637 whole entry): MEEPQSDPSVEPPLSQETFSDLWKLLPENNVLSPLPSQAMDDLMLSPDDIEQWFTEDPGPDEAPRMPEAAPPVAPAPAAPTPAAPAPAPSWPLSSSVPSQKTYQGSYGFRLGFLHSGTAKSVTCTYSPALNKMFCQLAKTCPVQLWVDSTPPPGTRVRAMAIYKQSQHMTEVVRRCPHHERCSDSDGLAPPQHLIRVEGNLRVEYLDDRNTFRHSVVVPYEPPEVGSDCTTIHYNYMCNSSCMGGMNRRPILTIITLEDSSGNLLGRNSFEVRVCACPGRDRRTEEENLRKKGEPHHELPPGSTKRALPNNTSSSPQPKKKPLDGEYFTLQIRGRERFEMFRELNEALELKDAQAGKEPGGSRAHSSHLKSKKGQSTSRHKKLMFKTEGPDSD

Substance: azurin: copper-containing, electron-transfer protein secreted by Pseudomonas aeruginosa; 128-amino acid
- anticancer activity in vivo [1]: significant anticancer activity
- binding to p53 NTD (NTD of p53): binds to either the NTD of p53
- preferential entry into cancer cells (cancer cells [2]): preferentially enters cancer relative to normal cells
- effect on p53 level (p53): stabilization and subsequent increase in intracellular concentration of p53
- anticancer activity in vitro (cancer cells [3]): significant anticancer activity in vitro
- complex formation with full-length p53 (full-length p53): a stable complex is formed
